# In patent US20120004289A1, “ANNEXIN A11 AND ASSOCIATED GENES AS BIOMARKERS FOR CANCER” (The Johns Hopkins University, priority 2009, published 2012):
# How the values were obtained:
# Assay type in all cases: cell-based, human
# [1] = test system: 2008 cells; assay: Cell cytotoxicity assay of cisplatin (CCK-8) in siRNA- or control-transfected 2008 cells; conditions: 72 hours
# Protocol: (A and B) Cell proliferation assay. 2008 (A) or HEY (B) cells were treated with RNAi (A1) or -Ctr at the concentration of 40 nM for 3 days, respectively, and then plated at 3000 viable cells per well into 96-well plates. Every 24 hours, one plate was subjected to assay by CCK-8 kit. The data in each time point are averaged values from eight replicates (P<0.05). (C) Colony formation assay. 2008 cells were treated in the same way as above for 3 days and then plated at 3000 viable cells per well into six-well plates. Six days after plating, cells were fixed with methanol and stained with 0.1% crystal violet and colonies were counted. The experiment was performed in six replicates (P<0.01). (D) Cell cytotoxicity assay. 2008 cells were treated in same way as above for 3 days and then plated at 3000 viable cells per well into 96-well plates. After incubating overnight, cells were treated with various concentration of cisplatin diluted in 100 μl of conditioned medium (the final concentrations of cisplatin were 0, 1.56, 3.13, 6.25, 12.5, 25, 50, and 100 μg/ml). After continuous incubation for 72 hours, the plates were subjected to assay by CCK-8 kit. The experiment was performed in three replicates (P<0.01). Three independent experiments were performed for each assay. […] Cells were then collected, counted, and plated at 3000 viable cells per well into 96-well plates in a final volume of 100 μl. […]
# [2] = test system: 2008 cells; assay: Time course of gene expression response to cisplatin, Agilent 44K whole genome oligo microarray; conditions: 10 μM cisplatin
# Protocol: 2008 cells were cultured in T150 flasks and transfected with A1 or negative control for 2 days. Cells were then collected, counted, and placed into 100-mm dishes. After incubating overnight, transfected cells were at 50% confluence and treated with 10 μM cisplatin (Sigma-Aldrich, St. Louis, Mo.) for 0, 8, 16, and 24 hours and then harvested in two portions for both total RNA and total protein extractions at every single time point. The optimized dose and duration of cisplatin treatment were experimentally determined in a previous study. Total RNA was isolated using TRIZOL reagent (Invitrogen) followed by RNeasy mini kit with DNase on-column digestion (Qiagen, Valencia, Calif.). RNA was quantified with NanoDrop ND-1000 followed by quality assessment with the 2100 Bioanalyzer (Agilent Technologies, Santa Clara, Calif.) according to manufacturer's protocol. Total RNA was labeled using Agilent Low RNA Input Fluorescent Linear Amplification Kit (Agilent) following the manufacturer's instruction with minor modifications. Briefly, 0.4 μg of RNA was reverse transcribed into cDNA by MMLV-RT using an oligo dT primer (System Biosciences, Mountain View, Calif.) that incorporated a T7 promoter sequence. The cDNA was then used as a template for in vitro transcription in the presence of T7 RNA polymerase and cyanine-3-labeled CTPs (Perkin Elmer Life Sciences, Boston, Mass.). RNA spike-in controls (Agilent) were added to RNA samples before amplification and labeling. The labeled cRNA was purified using the RNeasy mini kit (Qiagen). A total of 0.825 μg of each Cy3-labeled sample was used for hybridization on Agilent 4×44K whole human genome microarray at 65° C. for 17 hours in a hybridization oven with rotation. After hybridization, slides were washed and dried using stabilization and drying solution according to the Agilent microarray processing protocol. Slides were scanned using the Agilent Microarray Scanner controlled by Agilent Scan Control 7.0 software. Microarray data were extracted with Agilent Feature Extraction 9.5.3.1 software and imported into GeneSpring GX 10 (Agilent). […]
# [3] = test system: 2008 cells; assay: Real-time PCR validation of gene expression response to cisplatin; conditions: both groups of cells
# Protocol: 2008 cells were cultured in T150 flasks and transfected with A1 or negative control for 2 days. Cells were then collected, counted, and placed into 100-mm dishes. After incubating overnight, transfected cells were at 50% confluence and treated with 10 μM cisplatin (Sigma-Aldrich, St. Louis, Mo.) for 0, 8, 16, and 24 hours and then harvested in two portions for both total RNA and total protein extractions at every single time point. The optimized dose and duration of cisplatin treatment were experimentally determined in a previous study. Total RNA was isolated using TRIZOL reagent (Invitrogen) followed by RNeasy mini kit with DNase on-column digestion (Qiagen, Valencia, Calif.). RNA was quantified with NanoDrop ND-1000 followed by quality assessment with the 2100 Bioanalyzer (Agilent Technologies, Santa Clara, Calif.) according to manufacturer's protocol. […]. One microgram of total RNA was used to generate cDNA using the iScript cDNA Synthesis Kit (Bio-Rad, Hercules, Calif.). […] An experiment consisted of triplicate amplification reactions for each gene product being analyzed. […] The cycle threshold number (CT) was determined for each PCR using iQ5 Real-time PCR Detection System (Bio-Rad). […] Results are expressed as relative abundance of a specific mRNA between control and experimental sample (fold change, mean±SD).
compound,measurement,setting,value
N.N.[Cl][Pt][Cl] [cisplatin],fold increase of IC50 in RNAi cells compared with control cells,[1],2.6 fold
same,number of genes upregulated or downregulated more than two-fold vs 0 hour in both groups of cells,[2]; 8 hours,6 genes
same,number of genes upregulated or downregulated more than two-fold vs 0 hour in both groups of cells,[2]; 16 hours,19 genes
same,number of genes upregulated or downregulated more than two-fold vs 0 hour in both groups of cells,[2]; 24 hours,47 genes
same,PCSK9 gene expression (real-time PCR),"[3]; 10 μM cisplatin, 8, 16 and 24 hours",decreased at 8 hours but increased at 16 and 24 hours
same,DHRS2 gene expression (real-time PCR),"[3]; 10 μM cisplatin, 16 and 24 hours",down-regulation
